# Patent publication US20090069565A1, “NEW INDOLE DERIVATIVES AS FACTOR XA INHIBITORS” (priority 2001, published 2009)
# Read-outs that look alike come from different tables or passages of the source.
# Biological target: human factor Xa (Homo sapiens, UniProt P00742)
# Experiment: Factor Xa assay (chromogenic, substrate S-2765);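 note: purified enzyme preincubated with inhibitor for 10 min before substrate addition, final reaction volume 100 µl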
# Type: biochemical
# [1] = inhibition constant for factor Xa, purified enzyme 0.5 nM, substrate S-2765 140 μM, 25° C., pH 7.8, Ki=IC50/{1+(substrate concentration/Km)}, read-out: Ki(FXa)
# human factor Xa, sequence (P00742 235-488 limits assumed): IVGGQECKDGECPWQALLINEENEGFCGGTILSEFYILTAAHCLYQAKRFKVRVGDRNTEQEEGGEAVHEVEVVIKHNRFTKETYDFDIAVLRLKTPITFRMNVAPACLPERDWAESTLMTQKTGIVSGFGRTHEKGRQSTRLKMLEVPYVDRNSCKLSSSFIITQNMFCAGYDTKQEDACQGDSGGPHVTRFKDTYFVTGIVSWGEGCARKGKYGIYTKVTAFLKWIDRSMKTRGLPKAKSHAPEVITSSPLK
# human factor Xa, sequence (P00742 41-179 partner limits assumed): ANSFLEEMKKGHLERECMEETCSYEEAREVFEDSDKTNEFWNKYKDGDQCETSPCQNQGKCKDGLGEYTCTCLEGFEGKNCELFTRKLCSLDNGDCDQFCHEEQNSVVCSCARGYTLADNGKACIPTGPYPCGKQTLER
SMILES,Ki [1] [nM],Ki (read-out: Ki(FXa)) [nM],also measured
"CC(C)N1CCC(NC(=O)c2cc3ccccc3n2Cc2ccc(OC(F)(F)F)cc2)CC1 [Example 146, 1-(4-Trifluoromethoxy-benzyl)-1H-indole-2-carboxylic acid (1-isopropyl-piperidin-4-yl)-amide]",–,440,–
"CC(C)N1CCC(NC(=O)c2c(C#N)c3ccccc3n2Cc2cc(-c3ccc(Cl)s3)on2)CC1 [Example 160, 1-[5-(5-Chloro-thiophen-2-yl)-isoxazol-3-ylmethyl]-3-cyano-1H-indole-2-carboxylic acid (1-isopropyl-piperidin-4-yl)-amide]",–,–,Ki: 0.1 nM
"Cc1cccc2c(C#N)c(C(=O)NC3CCN(C(C)C)CC3)n(Cc3cc(-c4ccc(Cl)s4)on3)c12 [Example 161, 1-[5-(5-Chloro-thiophen-2-yl)-isoxazol-3-ylmethyl]-3-cyano-7-methyl-1H-indole-2-carboxylic acid (1-isopropyl-piperidin-4-yl)-amide]",–,–,Ki: 0.1 nM
"CC(C)N1CCC(NC(=O)c2cc3ccccc3n2CCc2ccc(Cl)cc2)CC1 [Example 169, 1-[2-(4-Chloro-phenyl)-ethyl]-1H-indole-2-carboxylic acid (1-isopropyl-piperidin-4-yl)-amide]",73,–,–
"COc1cccc2c1cc(C(=O)NC1CCN(C(C)C)CC1)n2CCc1ccc(Cl)cc1 [Example 172, 1-[2-(4-Chloro-phenyl)-ethyl]-4-methoxy-1H-indole-2-carboxylic acid (1-isopropyl-piperidin-4-yl)-amide]",–,41,–
"CC(C)N1CCC(NC(=O)c2cc3c(C(F)(F)F)cccc3n2Cc2cc(-c3ccc(Cl)s3)on2)CC1 [Example 177, 1-[5-(5-Chloro-thiophen-2-yl)-isoxazol-3-ylmethyl]-4-trifluoromethyl-1H-indole-2-carboxylic acid (1-isopropyl-piperidin-4-yl)-amide]",–,15,–
"Cc1ccc(C)c2c1cc(C(=O)NC1CCN(C(C)C)CC1)n2Cc1cc(-c2ccc(Cl)s2)on1 [Example 178, 1-[5-(5-Chloro-thiophen-2-yl)-isoxazol-3-ylmethyl]-4,7-dimethyl-1H-indole-2-carboxylic acid (1-isopropyl-piperidin-4-yl)-amide]",–,–,Ki: 1.3 nM
"COc1ccc(OC)c2c1cc(C(=O)NC1CCN(C(C)C)CC1)n2Cc1cc(-c2ccc(Cl)s2)on1 [Example 179, 1-[5-(5-Chloro-thiophen-2-yl)-isoxazol-3-ylmethyl]-4,7-dimethoxy-1H-indole-2-carboxylic acid (1-isopropyl-piperidin-4-yl)-amide]",–,5.5,–
"CC(C)N1CCC(NC(=O)c2cc3c(Cl)ccc(Cl)c3n2Cc2cc(-c3ccc(Cl)s3)on2)CC1 [Example 180, 4,7-Dichloro-1-[5-(5-chloro-thiophen-2-yl)-isoxazol-3-ylmethyl]-1H-indole-2-carboxylic acid (1-isopropyl-piperidin-4-yl)-amide]",–,24,–
"CC(C)N1CCC(NC(=O)c2cc3cc(Cl)cc(Cl)c3n2Cc2cc(-c3ccc(Cl)s3)on2)CC1 [Example 181, 5,7-Dichloro-1-[5-(5-chloro-thiophen-2-yl)-isoxazol-3-ylmethyl]-1H-indole-2-carboxylic acid (1-isopropyl-piperidin-4-yl)-amide]",–,14,–
"CC(C)N1CCC(NC(=O)c2cc3c(Cl)cccc3n2Cc2cc(-c3ccc(Cl)s3)on2)CC1 [Example 182, 4-Chloro-1-[5-(5-chloro-thiophen-2-yl)-isoxazol-3-ylmethyl]-1H-indole-2-carboxylic acid (1-isopropyl-piperidin-4-yl)-amide]",–,–,Ki: 5 nM
"CN1CCN(NC(=O)c2cc3ccccc3n2Cc2cc(-c3ccc(Cl)s3)on2)CC1 [Example 183, 1-[5-(5-Chloro-thiophen-2-yl)-isoxazol-3-ylmethyl]-1H-indole-2-carboxylic acid (4-methyl-piperazin-1-yl)-amide]",–,76,–
"CCOC(=O)CN(C(=O)c1cc2cccc(C)c2n1Cc1cc(-c2ccc(Cl)s2)on1)C1CCN(C(C)C)CC1 [Example 184, [{1-[5-(5-Chloro-thiophen-2-yl)-isoxazol-3-ylmethyl]-7-methyl-1H-Indole-2-carbonyl}-(1-isopropyl-piperidin-4-yl)-amino]-acetic acid ethyl ester]",–,13,–
"Cc1cccc2cc(C(=O)N(CC(=O)O)C3CCN(C(C)C)CC3)n(Cc3cc(-c4ccc(Cl)s4)on3)c12 [Example 185, [{1-[5-(5-Chloro-thiophen-2-yl)-isoxazol-3-ylmethyl]-7-methyl-1H-indole-2-carbonyl}-(1-isopropyl-piperidin-4-yl)-amino]-acetic acid]",–,5,–
"O=C(NC1CCN(CC(F)(F)F)CC1)c1cc2ccccc2n1Cc1cc(-c2ccc(Cl)s2)on1 [Example 188, 1-[5-(5-Chloro-thiophen-2-yl)-isoxazol-3-ylmethyl]-1H-indole-2-carboxylic acid [1-(2,2,2-trifluoro-ethyl)-piperidin-4-yl]-amide]",–,1030,–

# Now from value to molecule, other results behind:
Ki [1] [nM],Ki (read-out: Ki(FXa)) [nM],SMILES,also measured
40,–,"CC(C)N1CCC(NC(=O)c2cc3ccccc3n2Cc2cc3ccc(Cl)cc3s2)CC1 [Example 119, 1-(6-Chloro-benzo[b]thiophen-2-ylmethyl)-1H-indole-2-carboxylic acid (1-isopropyl-piperidin-4-yl)-amide]",–
4,–,"CC(C)N1CCC(NC(=O)c2cc3ccccc3n2Cc2nnc(-c3ccc(Cl)s3)s2)CC1 [Example 120, 1-[5-(5-Chloro-thiophen-2-yl)-[1,3,4]thiadiazol-2-ylmethyl]-1H-indole-2-carboxylic acid (1-isopropyl-piperidin-4-yl)-amide]",–
3,–,"CC(C)N1CCC(NC(=O)c2cc3ccccc3n2Cc2cc(-c3ccc(Cl)s3)no2)CC1 [Example 121, 1-[3-(5-Chloro-thiophen-2-yl)-isoxazol-5-ylmethyl]-1H-indole-2-carboxylic acid (1-isopropyl-piperidin-4-yl)-amide]",–
2,–,"CC(C)N1CCC(NC(=O)c2c(Cl)c3ccccc3n2Cc2cc(-c3ccc(Cl)s3)on2)CC1 [Example 122, 3-Chloro-1-[5-(5-chloro-thiophen-2-yl)-isoxazol-3-ylmethyl]-1H-indole-2-carboxylic acid (1-isopropyl-piperidin-4-yl)-amide]",–
2,–,"CC(C)N1CCC(NC(=O)c2c(Br)c3ccccc3n2Cc2cc(-c3ccc(Cl)s3)on2)CC1 [Example 123, 3-Bromo-1-[5-(5-chloro-thiophen-2-yl)-isoxazol-3-ylmethyl]-1H-indole-2-carboxylic acid (1-isopropyl-piperidin-4-yl)-amide]",–
–,1930,"CC(C)N1CCC(NC(=O)c2cc3ccccc3n2Cc2ccccc2Cl)CC1 [Example 148, 1-(2-Chloro-benzyl)-1H-indole-2-carboxylic acid (1-isopropyl-piperidin-4-yl)-amide]",–
–,686,"CC(C)N1CCC(NC(=O)c2cc3ccccc3n2Cc2cc(Cl)cc(Cl)c2)CC1 [Example 157, 1-(3,5-Dichloro-benzyl)-1H-indole-2-carboxylic acid (1-isopropyl-piperidin-4-yl)-amide]",–
2,–,"CC(C)N1CCC(NC(=O)c2c(F)c3ccccc3n2Cc2cc(-c3ccc(Cl)s3)on2)CC1 [Example 159, 3-Fluoro-1-[5-(5-chloro-thiophen-2-yl)-isoxazol-3-ylmethyl]-1H-indole-2-carboxylic acid (1-isopropyl-piperidin-4-yl)-amide]",–
57,–,CC(C)N1CCC(NC(=O)c2cc3ccccc3n2Cc2cnc(-c3ccc(Cl)s3)s2)CC1 [Example 162],–
654,–,"CC(C)N1CCC(NC(=O)c2cc3ccccc3n2Cc2cccc(Cl)c2)CC1 [Example 163, 1-(3-Chloro-benzyl)-1H-indole-2-carboxylic acid (1-isopropyl-piperidin-4-yl)-amide]",–
–,765,"CC(C)N1CCC(NC(=O)c2cc3ccccc3n2Cc2cccc(C(N)=O)c2)CC1 [Example 165, 1-(3-Carbamoyl-benzyl)-1H-indole-2-carboxylic acid (1-isopropyl-piperidin-4-yl)-amide]",–
470,–,"CC(C)N1CCC(NC(=O)c2cc3ccccc3n2CCc2ccc(Cl)cc2Cl)CC1 [Example 170, 1-[2-(2,4-Dichloro-phenyl)-ethyl]-1H-indole-2-carboxylic acid (1-isopropyl-piperidin-4-yl)-amide]",–
–,15,"CC(C)N1CCC(NC(=O)c2cc3c(Br)cccc3n2Cc2cc(-c3ccc(Cl)s3)on2)CC1 [Example 173, 4-Bromo-1-[5-(5-chloro-thiophen-2-yl)-isoxazol-3-ylmethyl]-1H-indole-2-carboxylic acid (1-isopropyl-piperidin-4-yl)-amide]",–
3,–,"Cc1cccc2c1cc(C(=O)NC1CCN(C(C)C)CC1)n2Cc1cc(-c2ccc(Cl)s2)on1 [Example 174, 1-[5-(5-Chloro-thiophen-2-yl)-isoxazol-3-ylmethyl]-4-methyl-1H-indole-2-carboxylic acid (1-isopropyl-piperidin-4-yl)-amide]",–
2,–,"CC(C)N1CCC(NC(=O)c2cc3cc(C#N)ccc3n2Cc2cc(-c3ccc(Cl)s3)on2)CC1 [Example 176, 1-[5-(5-Chloro-thiophen-2-yl)-isoxazol-3-ylmethyl]-5-cyano-1H-indole-2-carboxylic acid (1-isopropyl-piperidin-4-yl)-amide]",–
220,–,"CCC(CC)N1CCC(NC(=O)c2cc3ccccc3n2Cc2cc(-c3ccc(Cl)s3)on2)CC1 [Example 186, 1-[5-(5-Chloro-thiophen-2-yl)-isoxazol-3-ylmethyl]-1H-indole-2-carboxylic acid [1-(1-ethyl-propyl)-piperidin-4-yl]-amide]",–
40,–,"CN1CCC(NC(=O)c2cc3ccccc3n2Cc2cc(-c3ccc(Cl)s3)on2)CC1 [Example 187, 1-[5-(5-Chloro-thiophen-2-yl)-isoxazol-3-ylmethyl]-1H-indole-2-carboxylic acid (1-methyl-piperidin-4-yl)-amide]",–
–,2020,"O=CN1CCC(NC(=O)c2cc3ccccc3n2Cc2cc(-c3ccc(Cl)s3)on2)CC1 [Example 189, 1-[5-(5-Chloro-thiophen-2-yl)-isoxazol-3-ylmethyl]-1H-indole-2-carboxylic acid (1-formyl-piperidin-4-yl)-amide]",–
